Where “and” joins values, the source holds several entries; their conditions need not be identical. Equal entries are not always repeated. Where two headings read alike, the source gives them in different places.
C=CC(=O)N1CCC([C@@H]2CCNc3c(C(N)=O)c(-c4ccc(Oc5ccccc5)cc4)nn32)CC1 [zanubrutinib, (S)-7-(1-acryloylpiperidin-4-yl)-2-(4-phenoxyphenyl)-4,5,6,7-tetrahydropyrazolo[1,5-a]pyrimidine-3-carboxamide]
Opportunistic infection AESI, EAIR (During Coadministration): 0.67 per 100 person-months
Opportunistic infection AESI, patients (During Coadministration): 2.9%
Opportunistic infection SAEs, EAIR (During Coadministration): 0.50 per 100 person-months
Patients with at least 1 AESI (During Coadministration): 67 (48.6) n (%)
Petechiae (hemorrhage AESI) (During Coadministration): 0.7%
Platelet count decreased PT (During Coadministration): 2.2%
Platelet count decreased ≥Grade 3 (During Coadministration): 1.4%
Purpura (hemorrhage AESI) (During Coadministration): 0.0%
SAEs of opportunistic infections, patients (During Coadministration): 2.2% and 2.9%
Second primary malignancies AESI leading to dose interruption (During Coadministration): 1.4%
Second primary malignancies AESI ≥Grade 3, EAIR (During Coadministration): 0.33 per 100 person-months
Second primary malignancies AESI ≥Grade 3, patients (During Coadministration): 1.4%
Second primary malignancies AESI, EAIR (During Coadministration): 0.72 per 100 person-months
Second primary malignancies AESI, patients (During Coadministration): 2.9%
Sepsis (During Coadministration): 2.2%
Serious AESI (During Coadministration): 29 (21.0) n (%)
Serious atrial fibrillation and flutter AESI, EAIR (During Coadministration): 0.0 per 100 person-months
Serious atrial fibrillation and flutter AESI, patients (During Coadministration): 0.0%
Serious external ear neoplasm malignant (During Coadministration): 1 (0.7%) n (%)
Serious haematuria (During Coadministration): 0 (0.0%) n (%)
Serious haematuria (major hemorrhage) (During Coadministration): 0 (0.0%) n (%)
Serious hemorrhage AESI, EAIR (During Coadministration): 0.0 per 100 person-months
Serious hemorrhage AESI, patients (During Coadministration): 0.0%
Serious hypertension AESI, EAIR (During Coadministration): 0.16 per 100 person-months
Serious infection AESI, EAIR (During Coadministration): 6.16 per 100 person-months
Serious major hemorrhage AESI, EAIR (During Coadministration): 0.0 per 100 person-months
Serious major hemorrhage AESI, patients (During Coadministration): 0.0%
Serious neutropenia AESI, EAIR (During Coadministration): 1.11 per 100 person-months
Serious neutropenia AESI, patients (During Coadministration): 4.3%
Serious neutropenic sepsis (During Coadministration): 0%
Serious neutrophil count decreased (During Coadministration): 0.7%
Serious second primary malignancies AESI, EAIR (During Coadministration): 0.33 per 100 person-months
Serious second primary malignancies AESI, patients (During Coadministration): 1.4%
Serious squamous cell carcinoma of skin (During Coadministration): 0 (0.0%) n (%)
Sinusitis (During Coadministration): 2.9%
Skin cancer AESI ≥Grade 3, EAIR (During Coadministration): 0.00 per 100 person-months
Skin cancer AESI, EAIR (During Coadministration): 0.17 per 100 person-months
Skin cancer AESI, patients (During Coadministration): 0.7%
Skin cancer SAE, EAIR (During Coadministration): 0.00 per 100 person-months
Squamous cell carcinoma of skin (During Coadministration): 0.7%
Squamous cell carcinoma of skin ≥Grade 3 (During Coadministration): 0 (0.0%) n (%)
Thrombocytopenia AESI leading to dose interruption (During Coadministration): 1.4%
Thrombocytopenia AESI ≥Grade 3, EAIR (During Coadministration): 0.83 per 100 person-months
Thrombocytopenia AESI ≥Grade 3, patients (During Coadministration): 3.6%
Thrombocytopenia AESI, EAIR (During Coadministration): 1.52 per 100 person-months
Thrombocytopenia AESI, patients (During Coadministration): 6.5%
Thrombocytopenia PT (During Coadministration): 4.3%
Viral upper respiratory tract infection (During Coadministration): 2.2%
Anemia AESI ≥Grade 3, EAIR (Prior to Coadministration): 0.54 per 100 person-months
Anemia AESI, EAIR (Prior to Coadministration): 1.07 per 100 person-months
Atrial fibrillation PT (Prior to Coadministration): 1.7%
Atrial fibrillation and flutter AESI Grade ≥3, EAIR (Prior to Coadministration): 0.13 per 100 person-months
Atrial fibrillation and flutter AESI Grade ≥3, patients (Prior to Coadministration): 1.7%
Atrial fibrillation and flutter AESI, EAIR (Prior to Coadministration): 0.13 per 100 person-months
Atrial fibrillation and flutter AESI, patients (Prior to Coadministration): 1.7%
Atrial flutter PT (Prior to Coadministration): 0.0%
Basal cell carcinoma (Prior to Coadministration): 4.2%
Basal cell carcinoma leading to dose interruption (Prior to Coadministration): 2 (1.7%) n (%)
Basal cell carcinoma ≥Grade 3 (Prior to Coadministration): 2 (1.7%) n (%)
Bronchopulmonary aspergillosis (Prior to Coadministration): 3 (2.5%) n (%)
External ear neoplasm malignant leading to dose interruption (Prior to Coadministration): 2 (1.7%) n (%)
Febrile neutropenia PT (Prior to Coadministration): 1.7%
Grade 3 or higher AESI (Prior to Coadministration): 69 (58.0) n (%)
Haematuria (hemorrhage AESI) (Prior to Coadministration): 8.4%
Haematuria (major hemorrhage) (Prior to Coadministration): 2 (1.7%) n (%)
Haematuria (major hemorrhage) ≥Grade 3 (Prior to Coadministration): 2 (1.7%) n (%)
Haematuria leading to dose interruption (Prior to Coadministration): 2 (1.7%) n (%)
Haematuria ≥Grade 3 (Prior to Coadministration): 2 (1.7%) n (%)
Hemorrhage AESI leading to dose interruption (Prior to Coadministration): 3.4%
Hemorrhage AESI leading to dose reduction (Prior to Coadministration): 1.7%
Hemorrhage AESI ≥Grade 3, EAIR (Prior to Coadministration): 0.19 per 100 person-months
Hemorrhage AESI ≥Grade 3, patients (Prior to Coadministration): 2.5%
Hemorrhage AESI, EAIR (Prior to Coadministration): 9.70 per 100 person-months
Hemorrhage AESI, patients (Prior to Coadministration): 55.5%
Hepatitis B reactivation AESI (Prior to Coadministration): 2.5%
Hepatitis B reactivation AESI ≥Grade 3 (Prior to Coadministration): 2 (1.7%) n (%)
Hypertension AESI ≥Grade 3, EAIR (Prior to Coadministration): 0.56 per 100 person-months
Hypertension AESI ≥Grade 3, patients (Prior to Coadministration): 6.7%
Hypertension AESI, EAIR (Prior to Coadministration): 1.13 per 100 person-months
Hypertension AESI, patients (Prior to Coadministration): 12.6%
Infection AESI leading to death (Prior to Coadministration): 0.8%
Infection AESI leading to dose reduction (Prior to Coadministration): 7.6%
Infection AESI leading to treatment discontinuation (Prior to Coadministration): 1.7%
Infection AESI ≥Grade 3, EAIR (Prior to Coadministration): 3.82 per 100 person-months
Infection AESI, EAIR (Prior to Coadministration): 18.08 per 100 person-months
Major hemorrhage AESI leading to dose interruption (Prior to Coadministration): 1.7%
Major hemorrhage AESI ≥Grade 3, EAIR (Prior to Coadministration): 0.19 per 100 person-months
Major hemorrhage AESI ≥Grade 3, patients (Prior to Coadministration): 2.5%
Major hemorrhage AESI, EAIR (Prior to Coadministration): 0.25 per 100 person-months
Major hemorrhage AESI, patients (Prior to Coadministration): 3.4%
Malignant melanoma (Prior to Coadministration): 2 (1.7%) n (%)
Meningitis cryptococcal (Prior to Coadministration): 2 (1.7%) n (%)
Neutropenia AESI leading to dose reduction (Prior to Coadministration): 2.5%
Neutropenia AESI leading to treatment interruption (Prior to Coadministration): 7.6%
Neutropenia AESI ≥Grade 3, EAIR (Prior to Coadministration): 1.74 per 100 person-months
Neutropenia AESI ≥Grade 3, patients (Prior to Coadministration): 20.2%
Neutropenia AESI, EAIR (Prior to Coadministration): 2.72 per 100 person-months
Neutropenia AESI, patients (Prior to Coadministration): 28.6%
Neutropenic sepsis PT (Prior to Coadministration): 0.8%
Neutropenic sepsis ≥Grade 3 (Prior to Coadministration): 0.8%
Neutrophil count decreased leading to dose reduction (Prior to Coadministration): 0.8%
Opportunistic infection AESI leading to dose reduction (Prior to Coadministration): 3.4%
Opportunistic infection AESI leading to treatment discontinuation (Prior to Coadministration): 0.8%
Opportunistic infection AESI ≥Grade 3, EAIR (Prior to Coadministration): 0.38 per 100 person-months
Opportunistic infection AESI ≥Grade 3, patients (Prior to Coadministration): 6 (5.0%) n (%)
Opportunistic infection AESI, EAIR (Prior to Coadministration): 0.64 per 100 person-months
Opportunistic infection AESI, patients (Prior to Coadministration): 8.4%
Opportunistic infection SAEs, EAIR (Prior to Coadministration): 0.38 per 100 person-months
Patients with at least 1 AESI (Prior to Coadministration): 115 (96.6) n (%)
Petechiae (hemorrhage AESI) (Prior to Coadministration): 5.9%
Platelet count decreased PT (Prior to Coadministration): 3.4%
Platelet count decreased ≥Grade 3 (Prior to Coadministration): 0.8%
Purpura (hemorrhage AESI) (Prior to Coadministration): 5.9%
SAEs of opportunistic infections, patients (Prior to Coadministration): 5.0% and 8.4%
Second primary malignancies AESI leading to dose interruption (Prior to Coadministration): 4.2%
Second primary malignancies AESI ≥Grade 3, EAIR (Prior to Coadministration): 0.32 per 100 person-months
Second primary malignancies AESI ≥Grade 3, patients (Prior to Coadministration): 4.2%
Second primary malignancies AESI, EAIR (Prior to Coadministration): 1.05 per 100 person-months
Second primary malignancies AESI, patients (Prior to Coadministration): 12.6%
Serious AESI (Prior to Coadministration): 53 (44.5) n (%)
Serious anemia AESI, EAIR (Prior to Coadministration): 0.06 per 100 person-months
Serious atrial fibrillation and flutter AESI, EAIR (Prior to Coadministration): 0.06 per 100 person-months
Serious atrial fibrillation and flutter AESI, patients (Prior to Coadministration): 0.8%
Serious external ear neoplasm malignant (Prior to Coadministration): 2 (1.7%) n (%)
Serious haematuria (Prior to Coadministration): 2 (1.7%) n (%)
Serious haematuria (major hemorrhage) (Prior to Coadministration): 2 (1.7%) n (%)
Serious hemorrhage AESI, EAIR (Prior to Coadministration): 0.25 per 100 person-months
Serious hemorrhage AESI, patients (Prior to Coadministration): 3.4%
Serious infection AESI, EAIR (Prior to Coadministration): 3.31 per 100 person-months
Serious major hemorrhage AESI, EAIR (Prior to Coadministration): 0.25 per 100 person-months
Serious major hemorrhage AESI, patients (Prior to Coadministration): 3.4%
Serious neutropenia AESI, EAIR (Prior to Coadministration): 0.26 per 100 person-months
Serious neutropenia AESI, patients (Prior to Coadministration): 3.4%
Serious neutropenic sepsis (Prior to Coadministration): 0.8%
Serious neutrophil count decreased (Prior to Coadministration): 0.0%
Serious second primary malignancies AESI, EAIR (Prior to Coadministration): 0.39 per 100 person-months
Serious second primary malignancies AESI, patients (Prior to Coadministration): 5.0%
Serious squamous cell carcinoma of skin (Prior to Coadministration): 2 (1.7%) n (%)
Skin cancer AESI ≥Grade 3, EAIR (Prior to Coadministration): 0.26 per 100 person-months
Skin cancer AESI, EAIR (Prior to Coadministration): 0.69 per 100 person-months
Skin cancer AESI, patients (Prior to Coadministration): 8.4%
Skin cancer SAE, EAIR (Prior to Coadministration): 0.26 per 100 person-months
Squamous cell carcinoma of skin (Prior to Coadministration): 5.0%
Squamous cell carcinoma of skin ≥Grade 3 (Prior to Coadministration): 2 (1.7%) n (%)
Thrombocytopenia AESI leading to dose interruption (Prior to Coadministration): 0.8%
Thrombocytopenia AESI ≥Grade 3, EAIR (Prior to Coadministration): 0.26 per 100 person-months
Thrombocytopenia AESI ≥Grade 3, patients (Prior to Coadministration): 3.4%
Thrombocytopenia AESI, EAIR (Prior to Coadministration): 0.79 per 100 person-months
Thrombocytopenia AESI, patients (Prior to Coadministration): 9.2%
Thrombocytopenia PT (Prior to Coadministration): 6.7%
Tumor lysis syndrome AESI (all study periods): No AESI of tumor lysis syndrome were reported
